# Source: patent US4970297A, “Transglutaminase inhibitors” (Syntex (U.S.A.) Inc., priority 1987, dated 1990)
# Assays:
# Hymenolepsis nana = test: In vivo assay of anthelmintic activity, mixed helminth infection in mice; design: species or system Swiss-Webster mice; conditions: 1000 ppm in the food ad lib for 11 days from 24 hours post-infection, sacrificed on day 17
# Protocol: (§1) Male, Swiss-Webster mice were challenged with a mixed helminth infection of Nematospiroides dubius and Hymenolepsis nana. Starting 24 hours post-infection (p.i.) mice were treated for 11 days ad lib with N-Benzyloxycarbonyl-D,L-β-(3-bromo-4,5-dihydroisoxazol-5-yl)-alanine benzylamide mixed in the food at 1000 ppm. Animals were sacrificed on day 17 to examine parasite burden in the intestine.
# Nematospiroides dubius = test: as above; design: species or system Swiss-Webster mice; conditions: 1000 ppm in the food ad lib for 11 days from 24 hours post-infection, sacrificed on day 17
# Protocol: as §1
# [1] = system: Nippostronglus braziliensis; test: In vitro assay against Nippostronglus braziliensis; assay type: cell-based; design: key: A compound is defined as active if (1) cast formation is reduced 50 percent or more or (2) viability and motility together are reduced 50 percent or more; conditions: 50 μg/ml, fourth larval stage (L4), incubated at 37° C. for seven days
# Protocol: N-Benzyloxycarbonyl-D,L-β-(3-bromo-4,5-dihydroisoxazol-5-yl)-alanine benzylamide was active against Nippostronglus braziliensis in an in vitro assay.
# Rats were inoculated with 5,000 to 6,000 N. braziliensis third stage larvae subcutaneously. Seventy-two hours later rats were sacrificed and the fourth stage larvae harvested. Each drug was tested at 50 μg/ml against the fourth larval stage (L4) of N. braziliensis at approximately 50 L4/well. This mixture was incubated at 37° C. for a total of seven days and then read for activity. Parameters used to determine drug activity are motility, percent viability, and percent of L4 able to molt to the adult (percent cast formation). A compound is defined as active if (1) cast formation is reduced 50 percent or more or (2) viability and motility together are reduced 50 percent or more.
# transglutaminase = conditions: previously reported inhibitors; cited from earlier work
# tissue transglutaminase = biological target: T1, tissue transglutaminase (UniProt P08587); test: Inactivation of tissue transglutaminase; assay type: biochemical
# T1 construct: Liver transglutaminase from guinea pig liver was isolated and partially purified; from tissue; host or cells: guinea pig liver
# Protocol: Liver transglutaminase from guinea pig liver was isolated and partially purified according to the procedure outlined in "Methods of Enzymology", Vol. 113, pp. 358-375, with minor modifications. The 105,000×g supernatant from the 15,000×g supernatant of a crude homogenate of guinea pig liver, was chromatographed on DEAE-Sepharose CL-6B. Enzymatic activity was eluted with a 0-1.0M NaCl gradient in 5 mM TRIS, 2 mM EDTA pH 7.5 buffer. Fractions containing activity were pooled, dialyzed against 50 mM TRIS-HCl, 2 mM EDTA, pH 7.5 buffer and concentrated, when necessary, by Amicon Ultrafiltration (PM 10 filters).
# The activity and inhibition of guinea pig liver transglutaminase was assayed by measurement of the rate of incorporation of hydroxylamine into simple glutaminyl peptide derivatives, preferably CBZ-(L)-Glutaminyl-Glycine (see Folk and Chung, "Methods in Enzymology", Vol. 113, pp. 359-361). […]
# Prior to activity determination, guinea pig liver transglutaminase was activated anaerobically with 5 mM calcium chloride and 1 mM dithiothreitol at 25° C. […] The concentration of product formed after 10-25 minutes incubation was determined by quenching with 250 microliters of acidic ferric chloride reagent and measurement of the absorbance at 525 nm using a Gilford 2600 UV/VIS spectrophotometer. Typical uninhibited samples provided sufficient product for 0.5 absorbance units at 525 nm. […]
# [2] = system: galactose-induced cataracts; test: Cataract therapy: galactose-induced cataracts; assay type: in vivo; conditions: oral route in the diet at 0.05%
# human T-lymphocyte = test: Human T-lymphocyte transformation in vitro; assay type: cell-based; conditions: at 10^-6 in vitro
# Text: Transglutaminase inactivator, N-benzyloxycarbonyl-D,L-β-(3-bromo-4,5-dihydroisoxazol-5-yl)-alanine (4-(ethoxycarbonyl)phenyl)amide, inhibited human T-lymphocyte transformation at 10^-6 in vitro.
# T1 sequence (P08587 whole entry): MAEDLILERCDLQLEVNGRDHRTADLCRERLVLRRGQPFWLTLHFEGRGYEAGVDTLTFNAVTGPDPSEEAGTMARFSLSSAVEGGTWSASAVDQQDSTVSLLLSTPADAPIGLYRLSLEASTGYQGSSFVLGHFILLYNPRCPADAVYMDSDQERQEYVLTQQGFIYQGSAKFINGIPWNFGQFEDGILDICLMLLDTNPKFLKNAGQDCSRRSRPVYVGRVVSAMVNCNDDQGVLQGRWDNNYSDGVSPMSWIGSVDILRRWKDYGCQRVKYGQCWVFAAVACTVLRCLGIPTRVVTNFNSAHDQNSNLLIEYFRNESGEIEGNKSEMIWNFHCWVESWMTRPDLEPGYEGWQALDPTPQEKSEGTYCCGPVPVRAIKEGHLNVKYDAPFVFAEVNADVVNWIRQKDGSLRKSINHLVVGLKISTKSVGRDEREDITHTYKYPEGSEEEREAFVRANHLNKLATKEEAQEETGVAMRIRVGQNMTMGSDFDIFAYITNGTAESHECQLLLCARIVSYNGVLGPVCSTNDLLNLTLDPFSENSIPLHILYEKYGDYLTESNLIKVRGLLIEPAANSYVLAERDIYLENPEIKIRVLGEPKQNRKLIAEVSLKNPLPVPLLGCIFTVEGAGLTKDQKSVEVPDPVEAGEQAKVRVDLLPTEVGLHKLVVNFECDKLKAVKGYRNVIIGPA
structure (smiles),measurement,setting,value
"O=C(NC(CC1CC(Br)=NO1)C(=O)NCc1ccccc1)OCc1ccccc1 (racemic) [N-Benzyloxycarbonyl-D,L-β-(3-bromo-4,5-dihydroisoxazol-5-yl)-alanine benzylamide]",percent reduction of parasites in the intestine (Hymenolepsis nana),Hymenolepsis nana,significant percent reduction of parasites
same,percent reduction of parasites in the intestine (Nematospiroides dubius),Nematospiroides dubius,significant percent reduction of parasites
same,"activity against Nippostronglus braziliensis (cast formation, viability and motility)",[1],active
NCCSSCCN [cystamine],concentration at which effective as transglutaminase inhibitor,transglutaminase,greater than 10^-3 M
same,specificity for transglutaminases,transglutaminase,lacks specificity
"CCOC(=O)c1ccc(NC(=O)C(CC2CC(Br)=NO2)NC(=O)OCc2ccccc2)cc1 (racemic) [N-benzyloxycarbonyl-D,L-β-(3-bromo-4,5-dihydroisoxazol-5-yl)-alanine (4-(ethoxycarbonyl)phenyl)amide]",inactivation of tissue transglutaminase,tissue transglutaminase,potent inactivator
same,onset of galactose-induced cataracts,[2],delayed the onset
same,cytotoxicity associated with the inhibition of T-lymphocyte transformation,human T-lymphocyte,not associated with cytotoxicity
same,inhibition of human T-lymphocyte transformation,human T-lymphocyte,inhibited
